Consider three compounds from US20230255957A1, “VIRAL ENTRY INHIBITORS AND RNA POLYMERASE INHIBITORS” (SELVA THERAPEUTICS, INC., priority 2020, published 2023).

The term EC50 denotes the concentration that produces a half-maximal response. One may read the CC50 as the concentration giving 50% cytotoxicity.

Values joined by “and” are separate entries in the source; they are usually repeats but may differ in a detail not shown here. Equal entries are not always repeated. Where two headings read alike, the source gives them in different places.

For data set [1], the system named is SARS-CoV-2. Nature of the data set: In vitro cytopathogenic effect / EC100 assay, K11777 and EIDD-1931, Vero E6. The format is cell-based. The settings on record: for EC100: compound alone. The procedure:
Controlled in vitro assays were conducted to measure the concentrations of K11777 and EIDD-1931 in combination required to induce 100% maximal response (EC100) for SARS-CoV-2 activity in the Vero E6 cell line. The concentrations of the combination are also compared to the concentrations required for each compound to achieve the same result individually.
Table 4 is split into two portions (a) and (b) above to accommodate page size. The first columns of 4(a) and (b) show concentration values from 10 μM (micromolar) to 0.078 μM. […] The designation “ND” indicates no cytopathogenic effect was detected.
For orientation: Damage to the host cells serves as the signal in cytopathic effect assays.

In data set [2] the test system is SARS-CoV-2. Nature of the data set: microbe, parasite or virus in culture. The class given is cell-based. Particulars: read-out: Inhibition of Viral Infectivity EC50.
Data set [3] has as its system SARS-CoV-2. Nature of the data set: Initial pilot study, non-human primate model, organ assessment at autopsy. The class given is in vivo, African Green Monkey. Particulars: 100 mg/kg/day, 7 days, pretreated; autopsy day 7. The procedure:
An initial pilot study was conducted to determine the potential for efficacy of K777 against SARS-CoV-2 in a non-human primate model (African Green Monkey). The study included six subjects (N=6), with two controls receiving vehicle only and four receiving K777. Each subject was pretreated with K777 (100 mg/kg) or placebo (control). Each subject was then inoculated with SARS-CoV-2 at […] (3-4 hours after first dose of K777). Each subject was then treated with K777 for 6 additional days (7 days total) (100 mg/kg/day). Each subject was then sacrificed and an autopsy was performed at day 7. During the study, daily measurement of viral titers was performed via BAL, nasal swabs, and pharyngeal swabs. During autopsy, organ assessment was performed. The results are shown in Table 2.1 below and depicted in FIG. 4.

Data set [4] can be described thus: Cytotoxicity to host cells, HeLa/ACE2. The format is cell-based. Particulars: human. The procedure: (§1) Controlled […] assays were conducted to measure the half-maximal effective concentration (EC50) of K777 required to prevent entry of SARS-CoV-2 in various cell lines, as well as cytotoxicity to the host cells (CC50).
For data set [5], the system named is SARS-CoV-2. Description: Follow up pilot study, viral load in pharyngeal and nasal swabs and BAL. The format is in vivo, African Green Monkey.
Data set [6] in a line: Cytotoxicity to host cells, Calu-3. The settings on record: human, Calu-3 cells. The format is cell-based. The procedure:
as §1

The nature of data set [7]: Cytotoxicity to host cells, Vero E6. Particulars: African green monkey. The format is cell-based. How it is done: as §1
Data set [8] concerns SARS-CoV-2. Description: In vitro cytopathogenic effect / EC100 assay, K11777 and Remdesivir, Vero E6. The format is cell-based. The settings on record: for EC100: compound alone. How it is done:
Controlled in vitro assays were conducted to measure the concentrations of K11777 and Remdesivir in combination required to induce 100% maximal response (EC100) for SARS-CoV-2 activity in the Vero E6 cell line. The concentrations of the combination are also compared to the concentrations required for each compound to achieve the same result individually.
The designation “ND” indicates no cytopathogenic effect was detected. The designation “C” indicates the composition itself caused a cytotoxic effect. The designation “n/a” means no observation was made.

The nature of data set [9]: Cytotoxicity to host cells, A549/ACE2. The class given is cell-based. The settings on record: human. How it is done: as §1
In data set [10] the test system is SARS-CoV-2. Description: Follow up pilot study, non-human primate model, organ assessment at autopsy. The class given is in vivo, African Green Monkey. The settings on record: for Lung weight % of weight / Lung weight Left lobe / Lung weight Right lobe / Lung weight Total: 7 days, autopsy day 7. How it is done: Following the initial pilot study, a follow up pilot study was conducted to further explore the potential for efficacy of K777 against SARS-CoV-2 in a non-human primate model (African Green Monkey). The study included eight subjects (N=8), with two controls and six receiving K777. Unlike in the initial pilot, in this follow-up pilot no subjects were pretreated with K777. Each subject was inoculated with SARS-CoV-2 for 8 hours. Each subject was then treated with K777 for 7 days (33 mg/kg/day (n=3) or 100 mg/kg/day (n=3)) or placebo (n=2). Each subject was then sacrificed, and an autopsy was performed at day 7. During the study, measurements of viral load were determined from serial nasal and pharyngeal swabs as well as brochoalveolar fluid (BAL) samples. During autopsy, organ assessment was performed. The results are shown in Tables 2.2, 2.3, 2.4 and 2.5 below and depicted in FIGS. 5 to 12. FIGS. 7 to 10 depict histological slides of lung tissue taken from the subjects in the follow up pilot study after completion of the study. FIG. 6 depicts histological slides of lung tissue taken from a normal human lung and from a human lung with diffuse alveolar damage (DAD) for comparison. In FIGS. 7 to 10, NB numbers are subject identifiers. In FIGS. 8 to 10, “RL” means right lung and “LL” means left lung. FIG. 11 depicts the histopathology shown in FIGS. 8 to 10 in one chart for side-by-side comparison. FIG. 12 depicts viral load for each group on day 1 and day 7 of the follow up pilot study.

[11] abbreviates: conc 0.078 uM (of K777 in combinations), Vero E6.
The mark [12] stands for this setting: conc 0.3125 uM (of K777 in combinations), Vero E6.
Setting [13] is: African Green Monkey, SARS-CoV-2.
The mark [14] stands for this setting: conc 0.1 μM (of K11777 in combinations).
[15] abbreviates: conc 0.3 μM (of K11777 in combinations).
The mark [16] stands for this setting: conc 1 μM (of K11777 in combinations).

For the compound `CN1CCN(C(=O)N[C@@H](Cc2ccccc2)C(=O)N[C@H](/C=C/S(=O)(=O)c2ccccc2)CCc2ccccc2)CC1` [K777], the EC100 was determined as 2.5 µM in [1] (Vero E6) and 1 µM in data set [8]. Moreover, the cytopathogenic effect entry in data set [1] (setting [11]) is recorded as “CPE”; in [1] (conc 0.156 uM (of K777 in combinations), Vero E6), “CPE”; in [1] (setting [12]), “CPE”; in data set [1] (conc 0.625 uM (of K777 in combinations), Vero E6), “CPE”; in data set [1] (conc 1.25 uM (of K777 in combinations), Vero E6), “CPE”; in data set [8] (setting [14]), “CPE”. The cytopathogenic effect result in data set [8] (setting [15]) and in [8] (setting [16]) was “CPE” in each case. Further, the concentration for a half-maximal effect (EC50) in data set [2] (Severe acute respiratory syndrome coronavirus 2, A549-ACE2, A549/ACE2) is below 0.08 µM; in data set [2] (Severe acute respiratory syndrome coronavirus 2, Calu-3, Calu-3), 3 to 5 µM; in data set [2] (Severe acute respiratory syndrome coronavirus 2, HeLa-ACE2, HeLa/ACE2), 0.004 µM. In addition, the “Lung weight % of weight” value in data set [3] is 0.52% and 0.49% and 0.51% and 0.58%; in [10] (33 mg/kg/day), 0.66% and 0.95% and 0.54%; in data set [10] (100 mg/kg/day), 0.50% and 0.46% and 0.56%. Besides, the “Lung weight Left lobe” value in data set [3] is 13.06 g and 12.79 g and 19.06 g and 21.72 g; in data set [10] (33 mg/kg/day), 24 g and 28 g and 17 g; in data set [10] (100 mg/kg/day), 14 g and 15 g. The “Lung weight Right lobe” value in [3] is 17.22 g and 16.99 g and 14.43 g and 16.84 g; in data set [10] (33 mg/kg/day), 20 g and 28 g and 24 g; in [10] (100 mg/kg/day) it was 18 g and 19 g. For the same compound, the “Lung weight Total” value in data set [3] was 30.28 g and 29.78 g and 33.49 g and 38.56 g; in data set [10] (33 mg/kg/day) it was 44 g and 56 g and 41 g; in data set [10] (100 mg/kg/day), 32 g and 33 g and 34 g. Moreover, the Lymph enlargement in data set [3] is 2 fold and 2.5 fold. The CC50 in data set [4], in data set [6], in data set [7] and in [9] was above 10 µM in each case. Also, the “Viral Load -- Subgenomic E” value in data set [5] (30 mg/kg/day, BAL, d5) is 3.69E+04 Eq. VC/mL; in data set [5] (30 mg/kg/day, Nasal, d3), 1.62E+06 Eq. VC/mL; in data set [5] (30 mg/kg/day, Nasal, d5) it was 2.07E+04 Eq. VC/mL and 1.91E+04 Eq. VC/mL; in data set [5] (100 mg/kg/day, BAL, d3), 2.45E+06 Eq. VC/mL and 1.58E+06 Eq. VC/mL; in data set [5] (100 mg/kg/day, Nasal, d3), 7.94E+07 Eq. VC/mL; in data set [5] (100 mg/kg/day, Phary, d3), 3.34E+07 Eq. VC/mL and 2.04E+07 Eq. VC/mL and 3.29E+07 Eq. VC/mL. The “Viral Load -- Genomic N1” value in data set [5] (30 mg/kg/day, Phary, d3) is 1.11E+09 Eq. VC/mL and 1.87E+09 Eq. VC/mL; in data set [5] (100 mg/kg/day, BAL, d1), 3.38E+08 Eq. VC/mL and 2.69E+08 Eq. VC/mL. In addition, the “Viral Load -- Subgenomic N” value in [5] (100 mg/kg/day, BAL, d3) was 1.31E+07 Eq. VC/mL and 7.93E+06 Eq. VC/mL; in data set [5] (100 mg/kg/day, BAL, d7) it was 1.40E+05 Eq. VC/mL; in data set [5] (100 mg/kg/day, Nasal, d7), 4.19E+06 Eq. VC/mL; in data set [5] (100 mg/kg/day, Phary, d7), 3.64E+07 Eq. VC/mL and 5.51E+07 Eq. VC/mL. In addition, in data set [5] (setting [13]), the “viral load as compared to the vehicle” value was “significantly reduced viral load as compared to the vehicle”. Also, the “lung damage (histopathology)” value in data set [10] (setting [13]) was “protected the lung against diffuse alveolar damage (DAD) and ARDS-like lung damage”. Moreover, the “lung to body weight ratios” value in data set [10] (both pilot studies) is “able to maintain normal lung to body weight ratios”.
As to `O=c1[nH]/c(=N\O)ccn1[C@@H]1O[C@H](CO)[C@@H](O)[C@H]1O` [EIDD-1931, Beta-d-N4-hydroxycytidine, reference compound], the cytopathogenic effect result in data set [1] was “CPE”; in [1] (setting [11]), “CPE”; in [1] (setting [12]), “CPE”; in data set [1] (conc 2.5 uM (of K777 in combinations), Vero E6), “CPE”. In [1] (Vero E6), the EC100 worked out at 5 µM.
Regarding `CCC(CC)COC(=O)[C@H](C)N[P@](=O)(OC[C@H]1O[C@@](C#N)(c2ccc3c(N)ncnn23)[C@H](O)[C@@H]1O)Oc1ccccc1` [Remdesivir], the EC100 in data set [8] was determined as 3 µM. The cytopathogenic effect result in data set [8] (conc 0.01 μM (of K11777 in combinations)), in data set [8] (conc 0.03 μM (of K11777 in combinations)), in data set [8] (setting [14]), in [8] (setting [15]), in [8] (setting [16]) and in data set [8] (conc 3 μM (of K11777 in combinations)) was “CPE” throughout.
